One compound from US20230312564A1, “AROMATIC RING-LACTAM COMPOUND, PREPARATION METHOD THEREFOR AND USE THEREOF” (SHANGHAI RINGENE BIOPHARMA CO., LTD., priority 2020, published 2023) can be followed below.

Data set [1] deals with T1, CYP1A2 (Homo sapiens, UniProt P05177).
T1 sequence (P05177 1-516): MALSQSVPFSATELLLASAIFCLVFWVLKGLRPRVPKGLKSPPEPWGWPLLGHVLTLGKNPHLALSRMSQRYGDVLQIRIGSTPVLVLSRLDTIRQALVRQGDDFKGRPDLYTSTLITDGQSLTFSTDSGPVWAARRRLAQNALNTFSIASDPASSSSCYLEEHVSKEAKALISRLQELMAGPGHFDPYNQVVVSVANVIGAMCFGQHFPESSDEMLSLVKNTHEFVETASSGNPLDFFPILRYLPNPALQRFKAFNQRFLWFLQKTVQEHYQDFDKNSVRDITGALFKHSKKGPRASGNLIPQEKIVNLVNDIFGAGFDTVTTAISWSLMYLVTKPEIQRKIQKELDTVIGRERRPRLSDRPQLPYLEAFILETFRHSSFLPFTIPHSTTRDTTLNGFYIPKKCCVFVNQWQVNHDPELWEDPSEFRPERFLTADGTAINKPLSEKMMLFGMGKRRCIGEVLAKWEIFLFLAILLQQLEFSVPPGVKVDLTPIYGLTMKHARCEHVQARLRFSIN
The experiment in a line: Direct inhibition test (DI test) in human liver microsomes, CYP1A2. The procedure: (2) Direct inhibition test (DI test): A system containing 100 μL of human liver microsomes (final concentration of 0.2 mg/mL) was subjected to a direct inhibition incubation, and the system contained NADPH (final concentration of 1 mM), 10 μM compound, positive inhibitor cocktail (10 μM ketoconazole, 10 μM quinidine, 100 μM sulfaphenazole, 10 μM α-naphthoflavone, 1,000 μM tranylcypromine), negative control (BPS of 0.1% DMSO), and mixed probe substrates (10 μM midazolam, 100 μM testosterone, 10 μM dextromethorphan, […], 100 μM phenacetin, 100 μM mephenytoin). After 20 minutes of incubation, the reaction was stopped. The relative activity of the enzyme was calculated by measuring the relative production of metabolites.

A short description of data set [2]: Liver microsomal metabolic stability, mouse. The data set is classed as in vitro ADME. Particulars: liver microsomes, 0.5 mg/mL microsomes, 1 μM compound, NADPH, read-out: Liver microsomal stability T1/2. Here is the method:
(§1) The reaction was stopped with tinidazole-containing acetonitrile at 0 min, 5 min, 10 min and 30 min, respectively. After vortexing for 10 min and centrifuging at 15,000 rmp for 10 min, 50 μL of the supernatant was injected into a 96-well plate. The metabolic stability of the compound was calculated by determining the relative reduction of the drug, calculated as half-life T1/2.
For orientation: Microsomes from liver hold many membrane-bound enzymes, among them those of drug oxidation.

Data set [3] in a line: In-vivo pharmacokinetic parameters in mice. Set-up: species or system Balb-c mice. The essentials: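 Male SD rats or Balb-c mice were dosed intravenously at 1 mg/kg or orally at 5 mg/kg. Jugular-vein plasma was sampled up to 24 h and analysed by LC-MS/MS. Non-compartmental analysis gave AUC, MRT, Cmax, Tmax, T1/2, Vd and oral bioavailability (F).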
Data set [4] concerns Colo-205 cells. The experiment in a line: Colo-205 tumor cell proliferation, CCK-8, 72 hours. In kind it is cell-based.
Data set [5] is described as follows: Liver microsomal metabolic stability, dog. In kind it is in vitro ADME. The note with it: liver microsomes, 0.5 mg/mL microsomes, 1 μM compound, NADPH, read-out: Liver microsomal stability T1/2. Here is the method: as §1
Where [6] appears, read: male, Balb-c, mouse, plasma, IV, 1 mg/kg.
[7] abbreviates: male, Balb-c, mouse, plasma, PO, 5 mg/kg.

What is called IC50 is the concentration at which inhibition is half-maximal. What is called AUC(0-inf) is total exposure, with the tail of the curve extrapolated. Read a high AUC(0-inf) as more exposure. The term AUC(0-t) denotes the area under the concentration-time curve up to a stated or last time point. As usually defined, the MRT inf is the average time that molecules of a dose stay in the body. By clearance is commonly meant a measure of how efficiently the substance is removed, as volume per time. Read a low clearance as inefficient removal. Broadly, the Cmax is the peak of the concentration-time curve. One may read the Tmax as the time at which the peak concentration occurs. On to `COc1cc(F)cc([C@@H](CO)NC(=O)[C@@H](C)N2Cc3ccc(-c4nc(NC5CCOCC5)ncc4F)c(F)c3C2=O)c1` [Embodiment 40], for which the half-inhibitory concentration (IC50) in data set [1] was > 10000 nM. Moreover, the half-life at 1 μM in data set [2] came to 13 min. In addition, the F in data set [3] (PO 5 mg/kg vs IV 1 mg/kg) came to 59%. In data set [3] (setting [6]), this compound displayed an AUC(0-inf) of 0.368 µM·h, an AUC(0-t) of 0.365 µM·h, an MRT inf of 12 min and a clearance of 78 mL/min/kg. For the same compound, the half-life in data set [3] (setting [6]) was 36 min. In addition, the Vd in data set [3] (male, Balb-c, mouse, plasma, IV, 1 mg/kg, read-out: Vss) was found to be 1 L/kg. In data set [3] (setting [7]), the AUC(0-inf) came out at 1.09 µM·h, the area under the curve AUC(0-t) worked out at 1.08 µM·h, the highest concentration (Cmax) came to 1200 nM and the Tmax amounted to 18 min. In data set [3] (setting [7]), the half-life was 66 min. Besides, the “cell proliferation inhibitory activity (in words)” value in data set [4] (Colo-205) is reported as “strong cell proliferation inhibitory activity”. Further, the IC50 in data set [4] (Homo sapiens, COLO 205, 72 hours, CCK-8, numeric values, read-out: Colo-205 IC50) turned out to be 3.8 nM. The half-life at 1 μM in data set [5] amounted to 73 min.
